Experimental data: the kinase profiling compilation of Christmann-Franck et al. (2016)

How the values were obtained:
Test in all cases: KINOMEscan competition binding
TTK (human) = TTK (human) (UniProt P33981)
AURKA (human) = AURKA (human) (UniProt O14965)
AURKC (human) = AURKC (human) (UniProt Q9UQB9)
CAMK1 (human) = CAMK1 (human) (UniProt Q14012)
CAMK2A (human) = CAMK2A (human) (UniProt Q9UQM7)
CAMK2B (human) = CAMK2B (human) (UniProt Q13554)
CAMK2D (human) = CAMK2D (human) (UniProt Q13557)
CAMK2G (human) = CAMK2G (human) (UniProt Q13555)
CAMKK1 (human) = CAMKK1 (human) (UniProt Q8N5S9)
CDK2 (human) = CDK2 (human) (UniProt P24941)
CDK5 (human) = CDK5 (human) (UniProt Q00535)
CSNK1G1 (human) = CSNK1G1 (human) (UniProt Q9HCP0)
Sequence of CSNK1G1 (human) (Q9HCP0 whole entry, looked up): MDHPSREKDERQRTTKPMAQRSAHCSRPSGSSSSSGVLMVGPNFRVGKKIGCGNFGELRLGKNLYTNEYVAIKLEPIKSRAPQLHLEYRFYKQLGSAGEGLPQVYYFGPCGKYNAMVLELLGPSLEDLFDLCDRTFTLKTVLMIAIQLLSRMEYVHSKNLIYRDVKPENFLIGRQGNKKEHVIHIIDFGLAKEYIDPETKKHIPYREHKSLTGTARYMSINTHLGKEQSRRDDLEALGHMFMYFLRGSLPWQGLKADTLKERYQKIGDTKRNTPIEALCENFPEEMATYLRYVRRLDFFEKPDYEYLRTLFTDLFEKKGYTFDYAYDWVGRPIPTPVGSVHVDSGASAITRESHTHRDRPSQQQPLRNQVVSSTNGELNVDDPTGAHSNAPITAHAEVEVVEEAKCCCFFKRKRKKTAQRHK

DAPK2 (human) = DAPK2 (human) (UniProt Q9UIK4)
EPHA2 (human) = EPHA2 (human) (UniProt P29317)
EPHA4 (human) = EPHA4 (human) (UniProt P54764)
Sequence of EPHA4 (human) (P54764 whole entry, looked up): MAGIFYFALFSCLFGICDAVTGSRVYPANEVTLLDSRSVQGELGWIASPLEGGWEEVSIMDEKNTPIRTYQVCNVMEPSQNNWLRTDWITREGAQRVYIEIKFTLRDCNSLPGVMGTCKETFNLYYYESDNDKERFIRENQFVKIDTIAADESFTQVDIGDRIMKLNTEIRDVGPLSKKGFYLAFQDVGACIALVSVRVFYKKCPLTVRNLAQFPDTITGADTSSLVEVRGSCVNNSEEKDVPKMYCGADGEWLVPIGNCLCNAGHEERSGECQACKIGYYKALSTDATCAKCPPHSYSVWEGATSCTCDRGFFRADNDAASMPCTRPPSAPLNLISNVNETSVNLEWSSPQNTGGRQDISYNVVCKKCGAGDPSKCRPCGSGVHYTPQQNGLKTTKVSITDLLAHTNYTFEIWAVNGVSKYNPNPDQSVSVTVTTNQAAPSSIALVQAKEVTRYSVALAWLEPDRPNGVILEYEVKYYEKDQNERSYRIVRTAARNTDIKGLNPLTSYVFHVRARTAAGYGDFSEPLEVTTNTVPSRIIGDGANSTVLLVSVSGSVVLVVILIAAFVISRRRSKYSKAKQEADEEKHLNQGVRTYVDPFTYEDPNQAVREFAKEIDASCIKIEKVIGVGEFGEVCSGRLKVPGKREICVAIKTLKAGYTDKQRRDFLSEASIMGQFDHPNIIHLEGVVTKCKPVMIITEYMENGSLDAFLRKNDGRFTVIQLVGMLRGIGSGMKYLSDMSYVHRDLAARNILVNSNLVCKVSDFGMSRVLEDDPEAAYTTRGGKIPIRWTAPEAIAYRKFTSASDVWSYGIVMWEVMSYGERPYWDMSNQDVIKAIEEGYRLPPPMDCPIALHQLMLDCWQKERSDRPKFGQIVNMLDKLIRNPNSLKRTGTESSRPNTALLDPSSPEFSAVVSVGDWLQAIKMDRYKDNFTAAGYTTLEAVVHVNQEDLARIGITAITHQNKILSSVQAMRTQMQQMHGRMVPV

EPHA7 (human) = EPHA7 (human) (UniProt Q15375)
FGFR1 (human) = FGFR1 (human) (UniProt P11362)
FGFR2 (human) = FGFR2 (human) (UniProt P21802)
FGFR3 (human) = FGFR3 (human) (UniProt P22607)
FGR (human) = FGR (human) (UniProt P09769)
FLT3 (human) = FLT3 (human) (UniProt P36888)
FLT4 (human) = FLT4 (human) (UniProt P35916)
INSR (human) = INSR (human) (UniProt P06213)
[1] = biological target: JAK1 JH1 catalytic (human) (UniProt P23458)
KDR (human) = KDR (human) (UniProt P35968)
KIT (human) = KIT (human) (UniProt P10721)
LIMK1 (human) = LIMK1 (human) (UniProt P53667)
MAP3K5 (human) = MAP3K5 (human) (UniProt Q99683)
Sequence of MAP3K5 (human) (Q99683 whole entry, looked up): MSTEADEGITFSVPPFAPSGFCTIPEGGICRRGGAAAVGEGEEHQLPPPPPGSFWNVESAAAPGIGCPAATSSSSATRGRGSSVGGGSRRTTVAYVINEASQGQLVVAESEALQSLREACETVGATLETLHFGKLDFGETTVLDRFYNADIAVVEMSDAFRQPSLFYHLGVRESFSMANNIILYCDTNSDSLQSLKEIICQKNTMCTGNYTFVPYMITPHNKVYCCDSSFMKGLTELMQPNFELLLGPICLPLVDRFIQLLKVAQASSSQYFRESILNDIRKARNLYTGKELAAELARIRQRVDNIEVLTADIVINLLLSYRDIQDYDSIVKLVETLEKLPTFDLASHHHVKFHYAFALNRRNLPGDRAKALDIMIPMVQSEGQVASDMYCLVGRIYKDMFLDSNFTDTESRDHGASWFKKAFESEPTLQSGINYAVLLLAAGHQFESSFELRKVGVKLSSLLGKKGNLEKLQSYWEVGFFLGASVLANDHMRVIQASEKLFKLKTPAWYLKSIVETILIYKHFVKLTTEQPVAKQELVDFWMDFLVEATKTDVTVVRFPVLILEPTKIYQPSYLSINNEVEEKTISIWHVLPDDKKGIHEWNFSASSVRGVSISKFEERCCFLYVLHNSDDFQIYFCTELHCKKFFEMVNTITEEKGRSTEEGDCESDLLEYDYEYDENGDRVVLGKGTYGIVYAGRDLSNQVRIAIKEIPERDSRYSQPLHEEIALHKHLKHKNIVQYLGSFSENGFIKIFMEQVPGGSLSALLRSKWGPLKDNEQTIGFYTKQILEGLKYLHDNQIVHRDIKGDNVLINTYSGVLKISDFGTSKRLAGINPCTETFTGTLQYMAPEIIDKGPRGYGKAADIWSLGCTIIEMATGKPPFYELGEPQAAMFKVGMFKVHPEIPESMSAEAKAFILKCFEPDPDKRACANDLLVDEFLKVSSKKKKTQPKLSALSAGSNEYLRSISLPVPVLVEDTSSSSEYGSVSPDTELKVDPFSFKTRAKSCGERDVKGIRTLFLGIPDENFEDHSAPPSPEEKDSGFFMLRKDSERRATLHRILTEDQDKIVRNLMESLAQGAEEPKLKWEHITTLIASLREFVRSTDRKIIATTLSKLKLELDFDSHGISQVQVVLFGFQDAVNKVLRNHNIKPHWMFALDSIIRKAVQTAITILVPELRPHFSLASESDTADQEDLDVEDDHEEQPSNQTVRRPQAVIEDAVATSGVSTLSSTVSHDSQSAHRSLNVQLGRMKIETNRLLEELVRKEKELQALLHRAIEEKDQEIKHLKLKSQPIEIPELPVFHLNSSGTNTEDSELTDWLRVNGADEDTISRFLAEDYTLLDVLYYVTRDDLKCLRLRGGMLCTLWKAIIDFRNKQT

MAPK10 (human) = MAPK10 (human) (UniProt P53779)
MAPK11 (human) = MAPK11 (human) (UniProt Q15759)
MAPK12 (human) = MAPK12 (human) (UniProt P53778)
MAPK14 (human) = MAPK14 (human) (UniProt Q16539)
MAPK8 (human) = MAPK8 (human) (UniProt P45983)
MAPK9 (human) = MAPK9 (human) (UniProt P45984)
Sequence of MAPK9 (human) (P45984 whole entry, looked up): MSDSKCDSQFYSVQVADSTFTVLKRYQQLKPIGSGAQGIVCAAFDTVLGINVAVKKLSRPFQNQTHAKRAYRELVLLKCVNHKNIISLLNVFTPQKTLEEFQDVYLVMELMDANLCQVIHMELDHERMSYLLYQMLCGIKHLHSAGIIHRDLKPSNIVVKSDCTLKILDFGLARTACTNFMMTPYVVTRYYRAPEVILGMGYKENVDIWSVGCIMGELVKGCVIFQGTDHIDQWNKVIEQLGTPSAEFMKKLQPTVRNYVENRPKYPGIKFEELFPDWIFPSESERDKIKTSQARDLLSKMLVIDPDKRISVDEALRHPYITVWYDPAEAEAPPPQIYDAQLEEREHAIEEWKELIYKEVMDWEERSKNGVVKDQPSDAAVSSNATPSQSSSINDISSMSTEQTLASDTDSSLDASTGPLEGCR

MKNK2 (human) = MKNK2 (human) (UniProt Q9HBH9)
NEK6 (human) = NEK6 (human) (UniProt Q9HC98)
Sequence of NEK6 (human) (Q9HC98 whole entry, looked up): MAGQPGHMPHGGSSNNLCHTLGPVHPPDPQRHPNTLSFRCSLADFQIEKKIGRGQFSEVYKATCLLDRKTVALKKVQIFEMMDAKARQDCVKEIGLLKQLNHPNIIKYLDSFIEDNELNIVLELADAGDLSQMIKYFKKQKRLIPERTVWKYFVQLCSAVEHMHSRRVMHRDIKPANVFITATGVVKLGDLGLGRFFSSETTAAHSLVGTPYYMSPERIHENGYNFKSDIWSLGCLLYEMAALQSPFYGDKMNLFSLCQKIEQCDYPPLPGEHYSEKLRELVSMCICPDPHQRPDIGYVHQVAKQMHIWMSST

NEK9 (human) = NEK9 (human) (UniProt Q8TD19)
NTRK1 (human) = NTRK1 (human) (UniProt P04629)
PAK4 (human) = PAK4 (human) (UniProt O96013)
PAK6 (human) = PAK6 (human) (UniProt Q9NQU5)
PAK7 (human) = PAK7 (human) (UniProt Q9P286)
PDGFRB (human) = PDGFRB (human) (UniProt P09619)
PIM1 (human) = PIM1 (human) (UniProt P11309)
PIM2 (human) = PIM2 (human) (UniProt Q9P1W9)
PLK4 (human) = PLK4 (human) (UniProt O00444)
PRKAA1 (human) = PRKAA1 (human) (UniProt Q13131)
PRKACA (human) = PRKACA (human) (UniProt P17612)
PTK6 (human) = PTK6 (human) (UniProt Q13882)
RIPK2 (human) = RIPK2 (human) (UniProt O43353)
Sequence of RIPK2 (human) (O43353 whole entry, looked up): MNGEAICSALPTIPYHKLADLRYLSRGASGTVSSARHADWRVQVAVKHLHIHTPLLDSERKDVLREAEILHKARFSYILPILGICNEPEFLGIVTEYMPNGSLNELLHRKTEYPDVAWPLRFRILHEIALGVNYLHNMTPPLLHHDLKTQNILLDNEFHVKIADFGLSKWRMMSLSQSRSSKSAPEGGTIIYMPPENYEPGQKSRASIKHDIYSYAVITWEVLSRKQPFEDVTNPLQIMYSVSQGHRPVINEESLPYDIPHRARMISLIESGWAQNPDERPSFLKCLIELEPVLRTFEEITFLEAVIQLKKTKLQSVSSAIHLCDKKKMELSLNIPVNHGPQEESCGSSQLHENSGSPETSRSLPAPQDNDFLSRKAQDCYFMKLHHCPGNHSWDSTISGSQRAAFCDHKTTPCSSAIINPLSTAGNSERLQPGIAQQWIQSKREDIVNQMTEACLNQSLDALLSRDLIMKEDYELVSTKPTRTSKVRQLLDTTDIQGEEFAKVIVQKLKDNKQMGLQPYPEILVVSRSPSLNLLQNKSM

RPS6KA3 KD1 (human) = RPS6KA3 KD1 (human) (UniProt P51812)
RPS6KA5 KD1 (human) = RPS6KA5 KD1 (human) (UniProt O75582)
STK16 (human) = STK16 (human) (UniProt O75716)

Measured: Kd

Sequence of TTK (human) (P33981 whole entry, looked up): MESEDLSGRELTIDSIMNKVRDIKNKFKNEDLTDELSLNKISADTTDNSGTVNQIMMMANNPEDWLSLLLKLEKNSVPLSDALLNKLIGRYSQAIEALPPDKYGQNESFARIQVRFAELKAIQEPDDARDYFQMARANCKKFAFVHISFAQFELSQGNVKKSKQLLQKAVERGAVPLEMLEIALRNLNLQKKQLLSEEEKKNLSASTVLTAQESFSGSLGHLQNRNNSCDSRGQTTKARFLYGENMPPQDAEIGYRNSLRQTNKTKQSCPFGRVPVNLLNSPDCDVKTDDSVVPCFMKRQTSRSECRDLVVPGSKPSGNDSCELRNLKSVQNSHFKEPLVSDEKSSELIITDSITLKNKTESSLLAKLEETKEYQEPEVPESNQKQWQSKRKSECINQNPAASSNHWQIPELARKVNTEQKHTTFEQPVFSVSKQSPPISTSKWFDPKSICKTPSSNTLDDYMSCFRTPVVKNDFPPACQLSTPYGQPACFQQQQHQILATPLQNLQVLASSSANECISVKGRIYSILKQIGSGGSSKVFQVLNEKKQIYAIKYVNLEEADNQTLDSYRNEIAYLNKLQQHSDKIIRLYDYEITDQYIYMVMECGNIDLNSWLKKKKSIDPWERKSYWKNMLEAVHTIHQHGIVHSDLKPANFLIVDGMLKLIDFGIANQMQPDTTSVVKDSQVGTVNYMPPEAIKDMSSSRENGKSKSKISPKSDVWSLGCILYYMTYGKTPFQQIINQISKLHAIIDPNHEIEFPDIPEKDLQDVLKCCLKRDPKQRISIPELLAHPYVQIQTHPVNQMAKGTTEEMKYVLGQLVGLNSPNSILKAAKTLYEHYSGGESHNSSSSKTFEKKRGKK

CS(=O)c1ccc(-c2nc(-c3ccc(F)cc3)c(-c3ccncc3)[nH]2)cc1 (stereo not drawn)
> 10 µM: TTK (human)

CCOc1cc2ncc(C#N)c(Nc3ccc(F)c(Cl)c3)c2cc1NC(=O)/C=C/CN(C)C
> 10 µM: AURKA (human) | AURKC (human) | CAMK1 (human) | CAMK2A (human) | CAMK2B (human) | CAMK2D (human) | CAMK2G (human) | CAMKK1 (human) | CDK2 (human) | CDK5 (human) | CSNK1G1 (human) | DAPK2 (human) | EPHA2 (human) | EPHA4 (human) | EPHA7 (human) | FGFR1 (human) | FGFR2 (human) | FGFR3 (human) | FGR (human) | FLT3 (human) | FLT4 (human) | INSR (human) | [1] | KDR (human) | KIT (human) | LIMK1 (human) | MAP3K5 (human) | MAPK10 (human) | MAPK11 (human) | MAPK12 (human) | MAPK14 (human) | MAPK8 (human) | MAPK9 (human) | MKNK2 (human) | NEK6 (human) | NEK9 (human) | NTRK1 (human) | PAK4 (human) | PAK6 (human) | PAK7 (human) | PDGFRB (human) | PIM1 (human) | PIM2 (human) | PLK4 (human) | PRKAA1 (human) | PRKACA (human) | PTK6 (human) | RIPK2 (human) | RPS6KA3 KD1 (human) | RPS6KA5 KD1 (human) | STK16 (human) | TTK (human)
